According to patent US20010018095A1, “Method of forming a membrant, especially a latex or polymer membrane, including multiple discrete layers” (priority 1987, published 2001):

System: latex-allergic or sensitive users
Test: Gentian violet admixed with liquid latex: allergic reactions in users
Conditions: gentian violet admixed with liquid latex prior to membrane formation; 1.5% by weight solution preferred
From the text: According to one aspect of the invention, gentian violet is admixed with liquid latex prior to membrane formation by dipping or spraying techniques. A wide variety of different concentrations may be used, but a 1.5% by weight solution of gentian violet is preferred. […] Other proteing binding biocides may be employed in place of or in combination with gentian violet.
In the case of `CN(C)c1ccc(C(=C2C=CC(=[N+](C)C)C=C2)c2ccc(N(C)C)cc2)cc1` [gentian violet], the “allergic reactions in latex-allergic or sensitive users” value is reported as “minimize allergic reactions”.

System: not given
Test: not given
Conditions: candidate solvents for polyurethane and biocide; cited from earlier work
For `CCC(=O)CC` [Diethyl ketone], the “Hydrogen Bonding” value is listed as “medium”.
For `Cc1cccc(O)c1` [m-Cresol], the “Hydrogen Bonding” value is listed as “strong”.
In the case of `C1CCOC1` [Tetrahydrofuran (THF), Tetrahydrofuran], the “Hydrogen Bonding” value is given as “medium”.
For `CCC(C)=O` [Methyl ethyl ketone], the “Hydrogen Bonding” value is given as “medium”.
For `CC(=O)N(C)C` [Dimethyl acetamide (DMF), Dimethyl acetamide], the “Hydrogen Bonding” value is given as “medium”.
For `C[S+](C)[O-]` [Dimethyl sulfoxide (DMS), Dimethyl sulfoxide], the “Hydrogen Bonding” value is listed as “medium”.
In the case of `CCOCCO` [Ethylene glycol monoethyl ether], the “Hydrogen Bonding” value is listed as “medium”.
